pIC50: −log10 of the molar value.
Legend:
IL-5 production [1] = assay: Inhibition of IL-5 production by D10.G4.1 Th2 cells stimulated with conalbumin and antigen presenting cells (IL-5 ELISA); format: cell-based; conditions: inhibitory effect on IL-5 production; murine Th2 clone D10.G4.1 cells, conalbumin as antigen, 48 hours incubation, IL-5 in supernatant by ELISA
Method: The action on IL-5 production in mice was examined according to the following method as disclosed in […], et al., Immunology Letters, Vol. 34, pp. 297-302 (1992). Murine Th2 clone (D10.G4.1 cells) was purchased from ATCC. Antigen presenting cells were prepared by suspending 1 x 10^7 spleen cells of a 8-week-old female C3H/HeN mice in 5 ml of an RPMI-1640 medium and incubated together with 50 μg/ml of mitomycin C (MMC) at 37°C for 30 minutes and then washed with three 50 ml portions of RPMI-1640. To RPMI-1640 containing 10% bovine serum were added 0.5 U of IL-2 (produced by Genzyme) and 5 x 10^-5 M of 2-mercaptoethanol to prepare a medium for tissue culture. A test compound was dissolved in dimethyl sulfoxide (DMSO) and diluted with the tissue culture medium to have a final DMSO concentration of 0.1% and a varied test compound concentration. In each well of a 96-well microtiter plate (produced by Corning Glass Works) were put each 50 μl/well of 4 x 10^5 cells/ml of D10.G4.1 cells, 2 x 10^6 cells/ml of MMC-treated antigen presenting cells, 400 μg/ml of conalbumin (produced by Sigma) as an antigen and the solution of the test compound in the tissue culture medium (to make 200 μl/well), and incubated in an incubator under 5% CO2 at 37°C for 48 hours. After completion of the incubation, the supernatant liquor of the culture was collected, and the cells were separated by centrifugation. The IL-5 in the supernatant liquor was determined with an IL-5 ELISA kit produced by ENDOGEN. […]

ICR male mice = assay: Oral toxicity (mortality) in mice; format: in vivo; conditions: orally administered to ICR male mice grouped in fives, dose level of 100 mg/kg
Source text: The compounds of Examples 1, 2, and 3 were orally administered to ICR male mice grouped in fives.

IL-5 production [2] = conditions: reported in Japanese Journal of Allergology, 44(3-2), p. 424 (1993); judged not sufficient by the patent; cited from earlier work

Row | Compound | pIC50 (IL-5 production [1]) | death (ICR male mice) | inhibitory activity on IL-5 production (IL-5 production [2])
1 | 11-Amino-9-N,11-N-cyclic ethylene-9-deoxo-11-deoxy-6-O-methylerythromycin A 9-Benzylamine 11-N,12-O-Cyclic Carbamate [Compound of Example 3] | 6.92 | No death was observed | 
2 | 6-O-Methylerythromycin A 9-[O-(3-Methoxy-4-t-butylbenzyl)oxime] 11,12-Cyclic Carbonate [Compound of Example 2] | 6.92 | No death was observed | 
3 | CC[C@H]1OC(=O)[C@H](C)[C@@H](O[C@H]2C[C@@](C)(OC)[C@@H](O)[C@H](C)O2)[C@H](C)[C@@H](O[C@@H]2O[C@H](C)C[C@H](N(C)C)[C@H]2O)[C@](C)(O)C[C@@H](C)C(=O)[C@H](C)[C@@H](O)[C@]1(C)O [Erythromycin] |  |  | have an inhibitory activity on IL-5 production
4 | CC[C@H]1OC(=O)[C@H](C)[C@@H](O[C@H]2C[C@@](C)(OC)[C@@H](O)[C@H](C)O2)[C@H](C)[C@@H](O[C@@H]2O[C@H](C)C[C@H](N(C)C)[C@H]2O)[C@](C)(O)C[C@@H](C)/C(=N\OCOCCOC)[C@H](C)[C@@H](O)[C@]1(C)O [Roxithromycin] |  |  | have an inhibitory activity on IL-5 production
5 | 6-O-Methylerythromycin A 9-[O-(2-Chlorophenylmethyl)oxime] [Compound of Example 1] | 6.57 | No death was observed | 
